How the values were obtained:
[1] = target: human CB1 receptor (CNR1) (Homo sapiens (Human), UniProt P21554); assay: Radioligand binding assay ([3H]-CP-55,940), membranes of HEK cells expressing human CNR1; settings: 1.5 nM [3H]-CP-55,940, HEK cell membranes, 1 h at 30° C.
Protocol: (§1) Radioligand Binding Assay
(§2) The affinity of the compounds of the invention for cannabinoid receptors was determined using recommended amounts of membrane preparations (PerkinElmer) of human embryonic kidney (HEK) cells expressing the human CNR1 or CNR2 receptors in conjunction with 1.5 or 2.6 nM [3H]-CP-55,940 (Perkin Elmer) as radioligand, respectively. Binding was performed in binding buffer (50 mM Tris, 5 mM MgCl2, 2.5 mM EDTA, and 0.5% (wt/vol) fatty acid free BSA, pH 7.4 for CB1 receptor and 50 mM Tris, 5 mM MgCl2, 2.5 mM EGTA, and 0.1% (wt/vol) fatty acid free BSA, pH 7.4 for CB2 receptor) in a total volume of 0.2 mL for 1 h at 30° C. shaking. The reaction was terminated by rapid filtration through microfiltration plates coated with 0.5% polyethylenimine (UniFilter GF/B filter plate; Packard). Bound radioactivity was analyzed for Ki using nonlinear regression analysis (Activity Base, ID Business Solution, Limited), with the Kd values for [^3H]CP55,940 determined from saturation experiments.

[2] = target: human CB2 receptor (CNR2) (Homo sapiens (Human), UniProt P34972); assay: Radioligand binding assay ([3H]-CP-55,940), membranes of HEK cells expressing human CNR2; settings: 2.6 nM [3H]-CP-55,940, HEK cell membranes, 1 h at 30° C.
Sequence of human CB2 receptor (CNR2) (P34972 whole entry): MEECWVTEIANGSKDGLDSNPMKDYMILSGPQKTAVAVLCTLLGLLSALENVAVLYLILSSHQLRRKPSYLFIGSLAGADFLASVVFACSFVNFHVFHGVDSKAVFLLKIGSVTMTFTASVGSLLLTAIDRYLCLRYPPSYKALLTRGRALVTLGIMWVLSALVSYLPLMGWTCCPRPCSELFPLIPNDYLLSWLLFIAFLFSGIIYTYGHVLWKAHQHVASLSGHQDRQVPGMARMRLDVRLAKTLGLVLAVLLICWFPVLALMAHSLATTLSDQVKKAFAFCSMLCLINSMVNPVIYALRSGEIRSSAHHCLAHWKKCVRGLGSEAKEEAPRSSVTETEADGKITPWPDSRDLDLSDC
Protocol: as §1, §2

Sequence of human CB1 receptor (CNR1) (P21554 whole entry): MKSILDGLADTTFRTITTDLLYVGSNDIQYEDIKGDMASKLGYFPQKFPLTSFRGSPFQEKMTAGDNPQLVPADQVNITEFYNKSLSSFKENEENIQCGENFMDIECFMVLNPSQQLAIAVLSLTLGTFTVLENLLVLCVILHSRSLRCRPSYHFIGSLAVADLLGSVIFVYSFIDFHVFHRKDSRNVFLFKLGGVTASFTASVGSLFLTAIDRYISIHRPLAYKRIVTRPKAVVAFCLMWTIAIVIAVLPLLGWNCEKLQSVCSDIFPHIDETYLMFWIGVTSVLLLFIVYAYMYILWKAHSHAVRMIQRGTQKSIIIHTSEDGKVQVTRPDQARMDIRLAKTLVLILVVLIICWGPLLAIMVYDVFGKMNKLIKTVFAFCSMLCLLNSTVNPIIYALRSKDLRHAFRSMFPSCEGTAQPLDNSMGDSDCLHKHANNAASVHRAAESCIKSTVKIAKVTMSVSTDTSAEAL

SMILES | Ki [1] | Ki [2]
CC(C)(C)c1nc(N2CCC(F)(F)C2)c2nnn(Cc3ccccc3CCS(=O)(=O)F)c2n1 [Example 31, 2-[2-[[5-tert-Butyl-7-(3,3-difluoropyrrolidin-1-yl)triazolo[4,5-d]pyrimidin-3-yl]methyl]phenyl]ethanesulfonyl fluoride] | 1360 nM | 27 nM
CC(C)(C)c1nc(N2CCC(F)(F)C2)c2nnn(Cc3ccccc3CCSSc3ccccn3)c2n1 [Example 32, 5-tert-Butyl-7-(3,3-difluoropyrrolidin-1-yl)-3-[[2-[2-(pyridin-2-yldisulfanyl)ethyl]phenyl]methyl]triazolo[4,5-d]pyrimidine] | 1860 nM | 72 nM
CC(C)(C)c1nc(N2CCC(F)(F)C2)c2nnn(Cc3ccccc3CCSSCCN)c2n1 [Example 33, 2-[2-[2-[[5-tert-Butyl-7-(3,3-difluoropyrrolidin-1-yl)triazolo[4,5-d]pyrimidin-3-yl]methyl]phenyl]ethyldisulfanyl]ethanamine] | 588 nM | 63 nM
NCCSSCCc1ccccc1Cn1nnc2c(N3CCC(F)(F)C3)nc(C(F)(F)c3ccccc3)nc21 [Example 34, 2-[2-[2-[[5-[Difluoro(phenyl)methyl]-7-(3,3-difluoropyrrolidin-1-yl)triazolo[4,5-d]pyrimidin-3-yl]methyl]phenyl]ethyldisulfanyl]ethanamine] | 230 nM | 177 nM
CC(C)(C)c1nc(N2CCC(F)(F)C2)c2nnn(Cc3ccccc3CCSSCC(O)CO)c2n1 (centres unmarked) [Example 35, 3-[2-[2-[[5-tert-Butyl-7-(3,3-difluoropyrrolidin-1-yl)triazolo[4,5-d]pyrimidin-3-yl]methyl]phenyl]ethyldisulfanyl]propane-1,2-diol] | 135 nM | 5 nM
CC(C)(C)c1nc(N2CCC(F)(F)C2)c2nnn(Cc3ccccc3SSCCO)c2n1 [Example 36, 2-[[2-[[5-tert-Butyl-7-(3,3-difluoropyrrolidin-1-yl)triazolo[4,5-d]pyrimidin-3-yl]methyl]phenyl]disulfanyl]ethanol] | 560 nM | 95 nM
C#Cc1cccc(S(=O)(=O)F)c1Cn1nnc2c(N3CCC(F)(F)C3)nc(C(C)(C)C)nc21 [Example 38, 2-[[5-tert-Butyl-7-(3,3-difluoropyrrolidin-1-yl)triazolo[4,5-d]pyrimidin-3-yl]methyl]-3-ethynylbenzenesulfonyl fluoride] | 311 nM | 1 nM
